Data set [1] concerns SKOV3 cells. Conditions: for 2 hours; Royer et al.; used as positive control; cited from earlier work.
Data set [2] relates to SKOV3 cells. As to the kind of experiment: In vitro cytotoxicity study. The format is cell-based, human. Conditions: 0.1 μg/mL over a period of 7 days, FIG. 5. As for the experimental part:
RPMI 1640 with 20% fetal bovine serum (FBS) was used for culturing A2780 and OVCAR3, and McCoy's 5a cell growth media with 10% FBS was used for SKOV3 propagation. The cells were seeded in 96-well plates at 10^4 cells/well. […] The percentage cell viability was calculated as a percentage of the untreated group at each time point.

The subject of data set [3] is SKOV3 luciferase-positive cells. The data set is described as follows: Treatment efficacy study. The format is in vivo, nu/nu mice. The text has this: The nu/nu mice were inoculated with tumor cells on Day 0 and treatment was started on Day 14. […] The devices were sterilized with ethylene oxide prior to implantation. All animal care guidelines as listed in the animal protocol were followed. The animals were imaged 2 times a week, similar to the tumor induction study. The animals in the toxicity study were sacrificed on day 56 and their organs (kidney, liver, spleen, intestines and bone) were removed immediately upon euthanasia to be fixed in 10% formalin overnight.

In data set [4] the test system is ovarian cancer. Conditions: cited from earlier work.
The subject of data set [5] is OVCAR-3 ovarian tumor cell line. Conditions: cited from earlier work.
For data set [6] the following is noted: DrugBank, DB01229; cited from earlier work.

We go through two molecules from patent publication US10058688B2 (Massachusetts Institute of Technology, priority 2012, dated 2018).

SMILES strings stand for the structures. Read-outs that look alike come from different tables or passages of the source.

Regarding `N.N.[Cl][Pt][Cl]` [cisplatin], the “critical condition to kill ovarian tumor cells (concentration)” value in data set [1] is 10 µg/mL. Also, the “killing of tumor cells at 0.1 μg/mL” value in data set [2] was “too low to kill tumor cells”. The tumor size result in data set [3] (IP bolus injection (10 mg/kg), 1 dose per week) is “remained relatively small”. Further, in data set [3] (device or IP bolus 5 mg/kg 1x/wk from Day 14, vs untreated, FIG. 8), the tumor mass result is “significant tumor mass reduction”. Besides, the results for the “subjects who completed all cycles of therapy” value in data set [4] (IP therapy) and in data set [4] (IV therapy) were 42% and 83%, respectively. Also, the overall survival in data set [4] (IP treatment, p=0.03) was 65.6 months; in data set [4] (IV treatment), 49.7 months.
Consider `CC(=O)O[C@H]1C(=O)[C@@]2(C)[C@H]([C@H](OC(=O)c3ccccc3)[C@]3(O)C[C@H](OC(=O)[C@H](O)[C@@H](NC(=O)c4ccccc4)c4ccccc4)C(C)=C1C3(C)C)[C@]1(OC(C)=O)CO[C@@H]1C[C@@H]2O` [paclitaxel], for which the median survival in data set [5] (10 mg/kg dose) is 60 days; in data set [5] (40 mg/kg), “about 70 days”. Further, the “log P” value in data set [6] is listed as “about 3.5”.
